Series [1] in a line: Maximum Tolerated Dose, Sprague-Dawley rats. Particulars: rat, in vivo, oral, ascending dose. As for the experimental part: The acute safety of the compounds was assessed in rats in order to enable determination of the maximum tolerated dose (MTD), an indication of a compound's safety in animals. The higher the MTD, the greater is the potential safety of the compound being tested.
Two male and two female Sprague-Dawley rats, aged 8-12 weeks, were dosed at each dose level in an ascending dose study design. The test compounds were administered orally as a suspension formulated in 0.5% carboxymethylcellulose (CMC)/0.1% Tween-80 in a dose volume of 10 mL/kg. Animals were given free access to food throughout the study.
Animals were observed on at least two occasions during the first hour following dosing, approximately 30 minutes apart, and thereafter at hourly intervals for the remainder of the dosing day for at least 4 hours. […] The nature and severity, where appropriate, of the clinical signs and time were recorded at each observation. Observations included changes in the skin, fur, eyes, and mucous membranes, and also the respiratory, circulatory, autonomic, and central nervous system, as well as somatomotor activity and behaviour pattern. Particular attention was directed towards the observation of tremors, convulsions, salivation, diarrhoea, lethargy, sleep, and coma.
At the completion of the study, the results were expressed as the maximum tolerated dose for each compound, this being the highest of each without unacceptable toxicity.
The maximum dose without unacceptable side-effects was determined to be the MTD (expressed in mg/kg).

Series [2] concerns collagen-induced arthritis. Kind of series: Mouse Collagen-Induced Arthritis. It is filed as in vivo, DBA/1j mice. As to the method: Seven- to eight-week-old male DBA/1j mice were used for all procedures. Animals were housed in groups of 10, and were maintained at 21° C.±2° C. on a 12-hour light/dark cycle with food and water ad libitum. […]. All mice were immunised subcutaneously with 200 μg of bovine type II collagen in CFA. 21 days later, all mice were immunised subcutaneously with 100 μg of bovine type II collagen in IFA.
The mice started to develop signs and symptoms of arthritis following the ‘booster’ immunisation.
For macroscopic assessment of arthritis, the following signs were monitored in each paw of each mouse three times per week and summed to generate the Arthritic Index (AI) (the maximum AI for one animal is 16): • 0=no visible effects of arthritis. • 1=oedema and/or erythema of 1 digit. • 2=oedema and/or erythema of 2 digits. • 3=oedema and/or erythema of more than 2 digits. • 4=severe arthritis of entire paw and digits.
Animals were sorted into treatment groups with a mean arthritic index of 2.5 and then dosed once daily for 14 days with compound by oral gavage for test compounds, or by subcutaneous injection at a dose of 10 mg/kg for the positive control, etanercept. After completion of the experiment, the mice were sacrificed.
(§1) The data were analysed by generating an average of the arthritic index across each treatment group. The mean arthritic index was then compared to the arthritic index of control (untreated) animals using the following formula to generate a percentage inhibition of disease.

The next series concerns the target T1, hERG ion channel (Homo sapiens, UniProt Q12809).
T1 construct: expressed in transfected cells; host or cells: Chinese Hamster Ovary cells (hERG-CHO), stably transfected
As to the kind of experiment: hERG Ion Channel Assay (Q-patch, hERG-CHO cells). It is filed as cell-based. Particulars: hERG tail current, hERG-CHO cells, Q-patch; read-out: IC50 (1). In short, it runs like this: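 Automated whole-cell Q-patch on hERG-CHO cells (held at 30° C for 24–48 h beforehand), −80 mV holding, +20 mV for 2 s then −40 mV for 1 s to elicit tail current every 5 s. Cumulative rising concentrations, 5 min each; percent tail-current inhibition fitted to three-parameter logistic for IC50.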

The test system of series [3] is pristane-induced arthritis. Kind of series: Rat Pristane-Induced Arthritis Study. It is filed as in vivo. As to conditions: for % inhibition of disease: once daily for 28 days; for Tolerability during extended dosing: rat pristane-induced arthritis study, oral, up to 28 days. As to the method: Female Lewis rats were used for all procedures. Animals were housed in groups of 5, and were maintained at 21° C.±2° C. on a 12-hour light/dark cycle with food and water ad libitum. Arthritis was induced by the administration of 0.3 mL pristane intra-dermally at the base of the tail. The rats started to develop signs and symptoms of arthritis approximately seven days after the pristane injection.
For macroscopic assessment of arthritis, the following signs were monitored in each paw of each mouse three times per week and summed to generate the Arthritic Index (AI) (the maximum AI for one animal is 16): • 0=no visible effects of arthritis. • 1=oedema and/or erythema of 1 digit. • 2=oedema and/or erythema of 2 digits. • 3=oedema and/or erythema of more than 2 digits. • 4=severe arthritis of entire paw and digits including limb deformation and ankylosis of the joint.
Animals were sorted into treatment groups prior to pristane administration and dosed once daily for 28 days with test compound at doses of 3 and 10 mg/kg/day by oral gavage, or by intraperitoneal injection at a dose of 0.05 mg/kg for the positive control, methotrexate. After completion of the experiment, the rats were sacrificed.
as §1

The mark [4] stands for this setting: female Sprague-Dawley rats, read-out: Maximum tolerated dose, Females.
Where [5] appears, read: male Sprague-Dawley rats, read-out: Maximum tolerated dose, Males.
[6] abbreviates: 10 mg/kg/day oral gavage, once daily for 14 days, arthritic index vs control.

Like-named read-outs stand apart in the source and are kept apart here.

T1 sequence (Q12809 whole entry): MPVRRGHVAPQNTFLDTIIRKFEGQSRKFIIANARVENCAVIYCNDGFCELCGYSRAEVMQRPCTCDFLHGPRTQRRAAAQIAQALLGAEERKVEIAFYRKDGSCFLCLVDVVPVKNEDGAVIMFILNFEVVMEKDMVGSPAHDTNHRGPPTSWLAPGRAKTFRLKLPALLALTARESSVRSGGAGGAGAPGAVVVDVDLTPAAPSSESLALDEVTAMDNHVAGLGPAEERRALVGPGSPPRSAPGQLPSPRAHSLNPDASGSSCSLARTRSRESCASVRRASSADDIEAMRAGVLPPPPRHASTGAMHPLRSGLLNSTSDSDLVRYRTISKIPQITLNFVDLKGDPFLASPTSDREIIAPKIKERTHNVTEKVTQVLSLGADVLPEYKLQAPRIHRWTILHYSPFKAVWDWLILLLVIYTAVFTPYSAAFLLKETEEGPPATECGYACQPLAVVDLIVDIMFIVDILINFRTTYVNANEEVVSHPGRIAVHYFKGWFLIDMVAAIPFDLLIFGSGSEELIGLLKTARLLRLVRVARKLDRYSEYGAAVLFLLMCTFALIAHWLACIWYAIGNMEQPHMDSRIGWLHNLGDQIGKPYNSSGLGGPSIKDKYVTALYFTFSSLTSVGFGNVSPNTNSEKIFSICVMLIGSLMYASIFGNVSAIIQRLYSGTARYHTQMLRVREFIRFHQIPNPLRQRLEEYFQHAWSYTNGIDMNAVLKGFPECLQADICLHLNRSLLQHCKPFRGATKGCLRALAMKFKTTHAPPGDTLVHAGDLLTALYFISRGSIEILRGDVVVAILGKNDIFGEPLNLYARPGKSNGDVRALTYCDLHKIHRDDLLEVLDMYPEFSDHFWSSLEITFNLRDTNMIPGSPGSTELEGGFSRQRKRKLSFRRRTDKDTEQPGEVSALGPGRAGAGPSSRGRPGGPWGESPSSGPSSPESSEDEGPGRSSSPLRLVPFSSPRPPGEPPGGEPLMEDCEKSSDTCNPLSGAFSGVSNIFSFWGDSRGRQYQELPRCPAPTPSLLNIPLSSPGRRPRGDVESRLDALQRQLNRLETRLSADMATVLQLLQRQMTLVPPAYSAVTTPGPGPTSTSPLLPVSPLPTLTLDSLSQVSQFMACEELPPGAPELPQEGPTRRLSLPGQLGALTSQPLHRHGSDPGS

Turning to `Cc1cc(S(=O)(=O)NC2CCC(C)(O)CC2)ccc1-c1ccc(F)cc1F` (single isomer, unassigned) [REF001, reference compound], the figures for the MTD in series [1] (setting [4]) and in series [1] (setting [5]) were 7.5 mg/kg and 10 mg/kg, respectively.
For `Cc1cc(S(=O)(=O)N[C@H]2CC[C@H](O)CC2)ccc1-c1ccc(F)cc1F` [ABD735], in series [2] (setting [6]), the “% inhibition of disease” value is listed as 44%. In addition, the MTD amounted to 20 mg/kg in series [1] (setting [4]) and 10 mg/kg in series [1] (setting [5]).
On to `C[C@]1(O)CC[C@H](NS(=O)(=O)c2ccc(-c3ncc(F)cc3F)cc2)CC1` [HMC-N-02-A, 4-(3,5-Difluoropyridin-2-yl)-N-((1r,4r)-4-hydroxy-4-methylcyclohexyl)benzenesulfonamide], for which the “% inhibition of disease” value in series [2] (setting [6]) was 36%. For the same compound, the concentration for half-maximal inhibition (IC50) (as a rule, the concentration needed to halve the response being measured) at hERG ion channel amounted to 231 µM. The MTD in series [1] (setting [4]) and in series [1] (setting [5]) was above 200 mg/kg in each case.
Consider `C[C@]1(O)CC[C@H](NS(=O)(=O)c2ccc(-c3ccc(Cl)cc3C#N)cc2)CC1` [HMC-C-01-A, 4′-Chloro-2′-cyano-N-((1r,4r)-4-hydroxy-4-methylcyclohexyl)biphenyl-4-sulfonamide], for which the “% inhibition of disease” value in series [2] (0.3 mg/kg/day oral gavage, once daily for 14 days) stood at 60%; in series [2] (1 mg/kg/day oral gavage, once daily for 14 days) it was 50%; in series [2] (3 mg/kg/day oral gavage, once daily for 14 days), 60%; in series [2] (setting [6]), 40%; in series [3] (3 mg/kg/day oral gavage) it was 40%; in series [3] (10 mg/kg/day oral gavage), 67%. For the same compound, the “Efficacy compared with positive control etanercept” value in series [2] (low doses (0.3 and 3 mg/kg/day) vs etanercept 10 mg/kg subcutaneous) is given as “greater efficacy than the marketed treatment, etanercept, at low doses”. Moreover, in series [3] (methotrexate 0.05 mg/kg intraperitoneal), the “Efficacy compared with positive control methotrexate” value is reported as “equivalent to that of the marketed first-line therapy for rheumatoid arthritis, methotrexate”. Moreover, the “Tolerability during extended dosing” value in series [3] is given as “tolerated well”. For the same compound, the IC50 at hERG ion channel was found to be 19.3 µM. Also, the MTD in series [1] (setting [4]) and in series [1] (setting [5]) was 70 mg/kg throughout.
Turning to `C[C@]1(O)CC[C@H](NS(=O)(=O)c2ccc(-c3ncc(Cl)cc3Cl)cc2)CC1` [HMC-N-03-A, 4-(3,5-Dichloropyridin-2-yl)-N-((1r,4r)-4-hydroxy-4-methylcyclohexyl)benzenesulfonamide], the concentration for half-maximal inhibition (IC50) on hERG ion channel is above 30 µM. The MTD in series [1] (setting [4]) and in series [1] (setting [5]) was 50 mg/kg throughout.
As to `C[C@]1(O)CC[C@@H](NS(=O)(=O)c2ccc(-c3ncc(F)cc3F)c(F)c2)CC1` [HMC-N-01-B, 4-(3,5-Difluoropyridin-2-yl)-3-fluoro-N-((1s,4s)-4-hydroxy-4-methylcyclohexyl)benzenesulfonamide], the “% inhibition of disease” value in series [2] (dose reduced from 10 to 1 mg/kg/day due to mortality, oral gavage) is on record as 38%.
With `C[C@]1(O)CC[C@@H](NS(=O)(=O)c2ccc(-c3ccc(F)cc3F)cc2)CC1` [ABD899, reference compound], the “% inhibition of disease” value in series [2] (setting [6]) turned out to be 77%; in series [3] (3 mg/kg/day oral gavage), 21%. Besides, the “Tolerability during extended dosing” value in series [3] is “poorly tolerated”. Further, the 50% inhibitory concentration (IC50) on hERG ion channel amounted to 2.9 µM. The MTD in series [1] (setting [4]) and in series [1] (setting [5]) was 30 mg/kg in each case.
Take `C[C@]1(O)CC[C@H](NS(=O)(=O)c2ccc(-c3ccc(F)cc3C(F)(F)F)cc2)CC1` [HMC-C-02-A, 4′-Fluoro-N-((1r,4r)-4-hydroxy-4-methylcyclohexyl)-2′-(trifluoromethyl)biphenyl-4-sulfonamide]: in series [2] (setting [6]), the “% inhibition of disease” value is listed as 61%. Further, the half-maximal inhibitory concentration (IC50) on hERG ion channel is 25 µM. Besides, the MTD in series [1] (setting [4]) and in series [1] (setting [5]) was above 200 mg/kg throughout.
As to `C[C@]1(O)CC[C@H](NS(=O)(=O)c2ccc(-c3c(F)cc(F)cc3F)cc2)CC1` [HMC-C-03-A, 2′,4′,6′-Trifluoro-N-((1r,4r)-4-hydroxy-4-methylcyclohexyl)biphenyl-4-sulfonamide], the 50% inhibitory concentration (IC50) at hERG ion channel was above 30 µM. Besides, the MTD in series [1] (setting [4]) and in series [1] (setting [5]) was 30 mg/kg each time.
Regarding `C[C@]1(O)CC[C@H](NS(=O)(=O)c2ccc(-c3ncc(F)cc3F)c(F)c2)CC1` [HMC-N-01-A, 4-(3,5-Difluoropyridin-2-yl)-3-fluoro-N-((1r,4r)-4-hydroxy-4-methylcyclohexyl)benzenesulfonamide], the entries for the “% inhibition of disease” value in series [2] (setting [6]), in series [3] (3 mg/kg/day oral gavage) and in series [3] (10 mg/kg/day oral gavage) were 45%, 39% and 60%, respectively. For the same compound, in series [3], the “Tolerability during extended dosing” value is listed as “tolerated well”. Also, on hERG ion channel, the half-maximal inhibitory concentration (IC50) came out at 183 µM. For the same compound, the MTD in series [1] (setting [4]) and in series [1] (setting [5]) was 80 mg/kg each time.
For the compound `C[C@]1(O)CC[C@@H](NS(=O)(=O)c2ccc(-c3ccc(Cl)cc3C#N)cc2)CC1` [HMC-C-01-B, 4′-Chloro-2′-cyano-N-((1s,4s)-4-hydroxy-4-methylcyclohexyl)-[1,1′-biphenyl]-4-sulfonamide], the “% inhibition of disease” value in series [2] (setting [6]) was determined as 26%.
With `C[C@]1(O)CC[C@H](NS(=O)(=O)c2ccc(-c3ncc(Cl)cc3Cl)c(F)c2)CC1` [HMC-N-04-A, 4-(3,5-Dichloropyridin-2-yl)-3-fluoro-N-((1r,4r)-4-hydroxy-4-methylcyclohexyl)benzenesulfonamide], the half-inhibitory concentration (IC50) on hERG ion channel is above 30 µM.

(Values after US9624167B2, “N-(4-hydroxy-4-methyl-cyclohexyl)-4-phenyl-benzenesulfonamides and N-(4-hydroxy-4-methyl-cyclohexyl)-4-(2-pyridyl)benzenesulfonamides and their therapeutic use” (PIMCO 2664 LIMITED, priority 2013, dated 2017).)
